How the values were obtained:
H^+,K^+-ATPase = H^+,K^+-ATPase (Homo sapiens, UniProt P20648); conditions: cited from earlier work
[1] = test system: endogenous acid secretion; test: Inhibition of endogenous acid secretion in pylorus-ligated rats; type: in vivo, rat; conditions: ratio of doses for 50% reduction
Excerpt: This may increase pantoprazole's selectivity for the acid secreting parietal cells, where low pH conditions exist in the intracellular canaliculi. In intact animals, pantoprazole is active in inhibiting gastric acid secretion in both rats and dogs. Specifically, the intravenous and oral doses required to reduce endogenous acid secretion in pylorus-ligated rats by 50% are in the 1-3 μmole/kg range. […] Racemic pantoprazole is also effective at doses less than 5 μmole/kg in inhibiting exogenously stimulated acid secretion induced by a variety of agonists, indicating general activity of the drug in inhibiting acid secretion.

[2] = test system: endogenous acid secretion; conditions: pylorus-ligated rats, cited from earlier work
rats = conditions: two year; cited from earlier work
[3] = test system: exogenously stimulated acid secretion; conditions: secretion induced by a variety of agonists; cited from earlier work
mice [4] = test: Acute toxicity (LD50) in mice; type: in vivo
[5] = test system: hepatic drug metabolizing enzyme systems; conditions: intact rats and rat microsomal enzyme preparations; compared to omeprazole; cited from earlier work
serum gastrin = conditions: humans, short-term administration; cited from earlier work
duodenal ulcers = conditions: patients with duodenal ulcers, after four weeks of 20 to 80 mg per day; cited from earlier work
mice [6] = conditions: cited from earlier work
[7] = neutral and moderately acidic conditions; compared with omeprazole; cited from earlier work
rat = conditions: cited from earlier work
beta-adrenergic = conditions: cited from earlier work

Chain of H^+,K^+-ATPase (P20648 whole entry): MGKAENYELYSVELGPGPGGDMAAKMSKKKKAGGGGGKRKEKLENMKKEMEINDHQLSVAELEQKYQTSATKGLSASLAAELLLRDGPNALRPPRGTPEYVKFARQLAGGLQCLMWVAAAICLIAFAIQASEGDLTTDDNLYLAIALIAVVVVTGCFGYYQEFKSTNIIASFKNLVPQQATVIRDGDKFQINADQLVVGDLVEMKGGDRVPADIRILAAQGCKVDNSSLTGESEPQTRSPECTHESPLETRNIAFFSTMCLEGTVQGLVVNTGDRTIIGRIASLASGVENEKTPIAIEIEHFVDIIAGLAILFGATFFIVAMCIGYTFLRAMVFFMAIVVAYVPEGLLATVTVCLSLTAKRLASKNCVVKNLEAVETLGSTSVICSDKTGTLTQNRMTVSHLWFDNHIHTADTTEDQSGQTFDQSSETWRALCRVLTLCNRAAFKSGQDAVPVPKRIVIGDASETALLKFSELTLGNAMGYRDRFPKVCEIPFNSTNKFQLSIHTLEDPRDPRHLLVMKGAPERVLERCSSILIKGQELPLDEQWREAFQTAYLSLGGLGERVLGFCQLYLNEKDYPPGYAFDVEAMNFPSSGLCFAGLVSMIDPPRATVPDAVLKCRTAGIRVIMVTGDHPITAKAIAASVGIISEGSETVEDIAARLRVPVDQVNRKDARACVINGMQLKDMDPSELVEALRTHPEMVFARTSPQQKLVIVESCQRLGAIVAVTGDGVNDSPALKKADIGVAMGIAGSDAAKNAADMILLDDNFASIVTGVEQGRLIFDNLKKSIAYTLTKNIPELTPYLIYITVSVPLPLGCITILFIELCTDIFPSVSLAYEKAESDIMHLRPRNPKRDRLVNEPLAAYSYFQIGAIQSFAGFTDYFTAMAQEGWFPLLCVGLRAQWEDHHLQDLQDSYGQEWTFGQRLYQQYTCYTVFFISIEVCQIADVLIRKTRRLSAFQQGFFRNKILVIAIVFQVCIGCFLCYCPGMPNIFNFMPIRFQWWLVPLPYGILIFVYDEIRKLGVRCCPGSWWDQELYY
Chain of H^+,K^+-ATPase (P51164 whole entry partner): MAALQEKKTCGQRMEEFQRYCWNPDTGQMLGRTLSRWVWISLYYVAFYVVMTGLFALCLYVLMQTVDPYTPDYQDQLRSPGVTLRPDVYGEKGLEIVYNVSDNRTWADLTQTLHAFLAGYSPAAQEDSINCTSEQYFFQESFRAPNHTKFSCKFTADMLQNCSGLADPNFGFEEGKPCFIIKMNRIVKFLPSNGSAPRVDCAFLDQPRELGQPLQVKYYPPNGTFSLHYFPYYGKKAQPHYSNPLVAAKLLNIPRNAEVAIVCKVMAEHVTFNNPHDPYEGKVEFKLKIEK

COc1ccnc(C[S+]([O-])c2nc3cc(OC(F)F)ccc3[n-]2)c1OC.[Na+] (racemic) [Racemic pantoprazole sodium]
inhibition of H+,K+-ATPase (H^+,K^+-ATPase): potent, irreversible inhibitor

COc1ccnc(C[S+]([O-])c2nc3ccc(OC(F)F)cc3[nH]2)c1OC (racemic) [racemic pantoprazole]
calculated oral/intravenous (p.o./i.v.) ratio [1]: approximately 2 | intravenous dose required to reduce endogenous acid secretion by 50% ([2]; intravenous): 1 to 3 µmol/kg | oral dose required to reduce endogenous acid secretion by 50% ([2]; oral): 1 to 3 µmol/kg | finding in carcinogenicity study (rats): hepatocellular neoplasia | effective dose inhibiting exogenously stimulated acid secretion [3]: less than 5 μmole/kg | p.o./i.v. LD50 ratio (mice [4]): approximately 2 | inhibition of hepatic drug metabolizing enzyme systems [5]: weaker inhibitor | fasting serum gastrin levels (serum gastrin): significantly elevated | ulcer healing (duodenal ulcers): 90-100% | intravenous LD50 (mice [6]): 975 µmol/kg | chemical stability [7]: more chemically stable | oral LD50 (rat; in vivo, po): > 2,467 μmol/kg | intravenous LD50 (rat; intravenous): 632 µmol/kg

CC(C)NC[C@H](O)COc1cccc2ccccc12 [L-form of propranolol, propranolol]
potency relative to D-enantiomer (beta-adrenergic): 100 times
